{
  "source": "patent US7402548B2",
  "about": "“Benzoxazole compounds, process for producing the same and herbicides” (Kyoyu Agri Co., Ltd., priority 2000, dated 2008)",
  "key": {"monochoria": {"test_system": "monochoria", "assay": "Herbicidal test for paddy field", "format": "in vivo, Monochoria vaginalis", "details": "500 g/ha, dropwise addition to paddy water at 1.5 leaf stage of barnyard grass; glass house 25° C., 3 weeks; rank 0-5 vs non-treated district", "method": "(§1) Wagner pots, each having an area of 1/5000 are, were packed with Ube soil (alluvial soil) and planted with seeds or tubers of young rice plant, barnyard grass, bulrush, Cyperus serotinus Rottb., arrowhead and monochoria. Then, the pots were filled with water to a depth of 3 cm.\n(§2) Each wettable powder of the desired Compounds (I) shown in Tables 1 to 21, 24, 25, 28 and 29 prepared in accordance with Example 2 was diluted with water containing a surfactant (0.05%) and subjected to dropwise addition treatment by using pipet so that an effective concentration of the compound (I) in each herbicide became 500 g/ha at 1.5 leaf stage of barnyard grass.\n(§3) These plants were controlled in a glass house at an average temperature of 25° C. for 3 weeks, and then herbicidal effects thereof were investigated.\n(§4) The herbicidal effects are evaluated according to the following 6 ranks as compared with non-treated district. (0: normal development, 1: Less damaged, 2: Slightly damaged, 3: Moderately damaged, 4: Severely damaged, 5: All killed). Incidentally, “-” in the column means not investigated."}, "barnyard grass [1]": {"test_system": "barnyard grass", "assay": "Herbicidal test for paddy field", "format": "in vivo, Eschinochloa crusgalli", "details": "500 g/ha, dropwise addition to paddy water at 1.5 leaf stage of barnyard grass; glass house 25° C., 3 weeks; rank 0-5 vs non-treated district", "method": "as §1, §2, §3, §4"}, "annual bluegrass": {"test_system": "annual bluegrass", "assay": "Soil treatment test for upland field", "format": "in vivo, Poa annua", "design": "key: 0 = normal development, 5 = all killed", "details": "500 g/ha, 3 weeks, glass house 25° C.", "method_in_brief": "(§5)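 Using a pre-emergence soil application at 500 g/ha, treated pots were held 3 weeks in a glass house averaging 25° C. Injury was graded on a 0–5 scale against non-treated pots; \"-\" marks entries not investigated.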"}, "Large crabgrass [2]": {"test_system": "Large crabgrass", "assay": "Soil treatment test for upland field", "format": "in vivo, Digitaria adscendens", "design": "key: 0 = normal development, 5 = all killed", "details": "500 g/ha, 3 weeks, glass house 25° C.", "method_in_brief": "as §5"}, "wheat [3]": {"test_system": "wheat", "assay": "Foliar spread test for upland field", "format": "in vivo", "design": "key: 0 = normal development, 5 = all killed (6 ranks vs. untreated)", "details": "foliar spray, 500 ppm, 3 weeks, glass house 25° C.", "method_in_brief": "(§6)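 Scores on a 0–5 scale (0 normal development, 5 all killed), relative to untreated controls, were taken 3 weeks post-treatment in a 25 °C glass house. Treatment was a uniform foliar spray at 500 ppm (0.5% surfactant) onto roughly 2-week-old soil-grown plants.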"}, "green foxtail [4]": {"test_system": "green foxtail", "assay": "Soil treatment test for upland field", "format": "in vivo, Setaria viridis", "design": "key: 0 = normal development, 5 = all killed", "details": "500 g/ha, 3 weeks, glass house 25° C.", "method_in_brief": "as §5"}, "common lambsquarters [5]": {"test_system": "common lambsquarters", "assay": "Soil treatment test for upland field", "format": "in vivo, Chenopodium album", "design": "key: 0 = normal development, 5 = all killed", "details": "500 g/ha, 3 weeks, glass house 25° C.", "method_in_brief": "as §5"}, "soybean": {"test_system": "soybean", "assay": "Soil treatment test for upland field", "format": "in vivo", "design": "key: 0 = normal development, 5 = all killed", "details": "500 g/ha, 3 weeks, glass house 25° C.", "method_in_brief": "as §5"}, "corn": {"test_system": "corn", "assay": "Soil treatment test for upland field", "format": "in vivo", "design": "key: 0 = normal development, 5 = all killed", "details": "500 g/ha, 3 weeks, glass house 25° C.", "method_in_brief": "as §5"}, "wheat [6]": {"test_system": "wheat", "assay": "Soil treatment test for upland field", "format": "in vivo", "design": "key: 0 = normal development, 5 = all killed", "details": "500 g/ha, 3 weeks, glass house 25° C.", "method_in_brief": "as §5"}, "common lambsquarters [7]": {"test_system": "common lambsquarters", "assay": "Foliar spread test for upland field", "format": "in vivo, Chenopodium album", "design": "key: 0 = normal development, 5 = all killed (6 ranks vs. untreated)", "details": "foliar spray, 500 ppm, 3 weeks, glass house 25° C.", "method_in_brief": "as §6"}, "livid amaranth [8]": {"test_system": "livid amaranth", "assay": "Soil treatment test for upland field", "format": "in vivo, Amaranthus lividus", "design": "key: 0 = normal development, 5 = all killed", "details": "500 g/ha, 3 weeks, glass house 25° C.", "method_in_brief": "as §5"}, "green foxtail [9]": {"test_system": "green foxtail", "assay": "Foliar spread test for upland field", "format": "in vivo, Setaria viridis", "design": "key: 0 = normal development, 5 = all killed (6 ranks vs. untreated)", "details": "foliar spray, 500 ppm, 3 weeks, glass house 25° C.", "method_in_brief": "as §6"}, "Large crabgrass [10]": {"test_system": "Large crabgrass", "assay": "Foliar spread test for upland field", "format": "in vivo, Digitaria adscendens", "design": "key: 0 = normal development, 5 = all killed (6 ranks vs. untreated)", "details": "foliar spray, 500 ppm, 3 weeks, glass house 25° C.", "method_in_brief": "as §6"}, "barnyard grass [11]": {"test_system": "barnyard grass", "assay": "Soil treatment test for upland field", "format": "in vivo, Eschinochloa crusgalli", "design": "key: 0 = normal development, 5 = all killed", "details": "500 g/ha, 3 weeks, glass house 25° C.", "method_in_brief": "as §5"}, "livid amaranth [12]": {"test_system": "livid amaranth", "assay": "Foliar spread test for upland field", "format": "in vivo, Amaranthus lividus", "design": "key: 0 = normal development, 5 = all killed (6 ranks vs. untreated)", "details": "foliar spray, 500 ppm, 3 weeks, glass house 25° C.", "method_in_brief": "as §6"}},
  "data": [
    {"smiles": "CCC(Oc1cc(C)nc(SC)n1)c1nc2cc(Cl)ccc2o1", "note": "(centres unmarked) [Compound 1-e-64]", "values": [
      {"measurement": "Effects Monochoria", "setting": "monochoria", "value": 4}
    ]},
    {"smiles": "CCC(Oc1cc(C(F)(F)F)ncn1)c1nc2cc(Cl)ccc2o1", "note": "(centres unmarked) [Compound 1-e-66]", "values": [
      {"measurement": "Effects Barnyardgrass", "setting": "barnyard grass [1]", "value": 2},
      {"measurement": "Effects Monochoria", "setting": "monochoria", "value": 5}
    ]},
    {"smiles": "CCC(Oc1cc(C(F)(F)F)nn1C)c1nc2cc(C#N)c(F)cc2o1", "note": "(centres unmarked) [Compound 1-e-10]", "values": [
      {"measurement": "Effects Annual bluegrass", "setting": "annual bluegrass", "value": 5},
      {"measurement": "Effects Large crabgrass", "setting": "Large crabgrass [2]", "value": 5},
      {"measurement": "Effects Wheat", "setting": "wheat [3]", "value": 1},
      {"measurement": "Effects Barnyardgrass", "setting": "barnyard grass [1]", "value": 5},
      {"measurement": "Effects Green foxtail", "setting": "green foxtail [4]", "value": 5},
      {"measurement": "Effects Common lambsquarters", "setting": "common lambsquarters [5]", "value": 5},
      {"measurement": "Effects Soybean", "setting": "soybean", "value": 2},
      {"measurement": "Effects Corn", "setting": "corn", "value": 1},
      {"measurement": "Effects Wheat", "setting": "wheat [6]", "value": 0},
      {"measurement": "Effects Common lambsquarters", "setting": "common lambsquarters [7]", "value": 5},
      {"measurement": "Effects Livid amaranth", "setting": "livid amaranth [8]", "value": 5},
      {"measurement": "Effects Green foxtail", "setting": "green foxtail [9]", "value": 5},
      {"measurement": "Effects Monochoria", "setting": "monochoria", "value": 4},
      {"measurement": "Effects Large crabgrass", "setting": "Large crabgrass [10]", "value": 5},
      {"measurement": "Effects Barnyardgrass", "setting": "barnyard grass [11]", "value": 4},
      {"measurement": "Effects Livid amaranth", "setting": "livid amaranth [12]", "value": 5}
    ]},
    {"smiles": "CCCC(Oc1cc(C)nc(C#N)n1)c1nc2cc(C#N)ccc2o1", "note": "(centres unmarked) [Compound 1-e-70]", "values": [
      {"measurement": "Effects Large crabgrass", "setting": "Large crabgrass [2]", "value": 2},
      {"measurement": "Effects Common lambsquarters", "setting": "common lambsquarters [5]", "value": 3},
      {"measurement": "Effects Soybean", "setting": "soybean", "value": 0},
      {"measurement": "Effects Corn", "setting": "corn", "value": 0},
      {"measurement": "Effects Wheat", "setting": "wheat [6]", "value": 0},
      {"measurement": "Effects Livid amaranth", "setting": "livid amaranth [8]", "value": 5},
      {"measurement": "Effects Monochoria", "setting": "monochoria", "value": 3}
    ]}
  ]
}
